Assay results as given in PubChem BioAssay (NCI).
Where “and” joins values, the source holds several entries; their conditions need not be identical. Equal entries are not always repeated.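 How tested: cells in 96-well plates exposed to compound for 48 hours at five concentrations. At the GI50, growth is halved. TGI: concentration producing complete growth inhibition.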

What was measured:
Assay in all cases: NCI-60 cell line screen, 48 h
NCI-H226 lung = system: NCI-H226 lung
EKVX NSCLC = system: EKVX NSCLC
COLO 205 colon = system: COLO 205 colon
SNB-75 CNS = system: SNB-75 CNS
HOP-62 NSCLC = system: HOP-62 NSCLC
OVCAR-4 ovarian = system: OVCAR-4 ovarian
HCT-15 colon = system: HCT-15 colon
NCI-H460 lung = system: NCI-H460 lung
SW-620 colon = system: SW-620 colon
A498 renal = system: A498 renal

Row | SMILES | GI50 (NCI-H226 lung) [µM] | TGI (NCI-H226 lung) [µM] | GI50 (EKVX NSCLC) [µM] | TGI (EKVX NSCLC) [µM] | GI50 (COLO 205 colon) [µM] | TGI (COLO 205 colon) [µM] | GI50 (SNB-75 CNS) [µM] | TGI (SNB-75 CNS) | GI50 (HOP-62 NSCLC) [µM] | TGI (HOP-62 NSCLC) [µM] | GI50 (OVCAR-4 ovarian) [µM] | TGI (OVCAR-4 ovarian) [µM] | GI50 (HCT-15 colon) [µM] | TGI (HCT-15 colon) [µM] | GI50 (NCI-H460 lung) [µM] | TGI (NCI-H460 lung) [µM] | GI50 (SW-620 colon) [µM] | TGI (SW-620 colon) [µM] | GI50 (A498 renal) [µM] | TGI (A498 renal) [µM]
1 | C#Cc1cccc(NC(=O)C2CCCN(C(=O)CCl)C2)c1 (centres undefined) | > 82.5 | > 82.5 | > 82.5 | > 82.5 | 21.5 | 45 | > 82.5 | > 82.5 µM | > 82.5 | > 82.5 | 19.5 | 52.8 | 28.3 | > 82.5 | > 82.5 | > 82.5 | 29.5 | > 82.5 |  | 
2 | C/C(CC(=O)Nc1cccc([N+](=O)[O-])c1)=N\NC(=O)C[n+]1ccccc1 |  | > 100 |  | > 100 |  | > 100 |  | > 100 µM |  | > 100 |  |  |  |  |  | > 100 |  | > 100 |  | 
3 | CN(C)c1ccc(C2CC(C)(O)Oc3cc4c(cc32)OCO4)cc1 (centres undefined) |  | > 100 |  | > 100 |  | 50.3 |  | 75.1 µM |  | > 100 |  |  |  | > 100 |  | > 100 |  | > 100 |  | 
4 | COc1cc2cc3c(c(O)c2c(O)c1-c1c(OC)cc2cc4c(c(O)c2c1O)C(=O)O[C@H](C)C4)C(=O)O[C@H](C)C3 | 32.7 | > 100 | 16.2 | 63.9 | 27.2 | 78.7 |  |  | 26.9 | 62.7 | 22.4 | > 100 | 25.6 | 82.1 | 16.8 | 56.8 | 77.1 | > 100 |  | 
5 | COc1ccc2c(c1)[n+](=O)c(C(C)=O)c(C)n2[O-] |  | > 100 |  | > 100 |  | > 100 |  |  |  | > 100 |  | > 100 |  | > 100 |  | > 100 |  | > 100 |  | 
6 | COC(=O)[C@]1(C)CCC[C@]2(C)[C@@H]1CCC13C[C@@H](C=CO1)[C@@H](C)CC32O (some centres undefined) | > 100 | > 100 | 2.07 | > 100 | 64.4 | > 100 | 62.2 | > 100 µM | > 100 | > 100 | 61.5 | > 100 | > 100 | > 100 | 43.8 | > 100 | > 100 | > 100 |  | 
7 | CCOc1ccc(Nc2nc(-c3c(C)nc4ncccn34)cs2)cc1 | 2.81 | 22.6 |  |  | < 0.01 | 0.0404 |  |  | 0.0306 | 18.4 |  |  | 0.0467 | 15.4 | 0.0305 | 12.5 | 0.0218 | 16 | < 0.01 | 0.0678
8 | COc1cc(OC)cc(-c2ccc(-c3ccc(C(=N)N)cn3)s2)c1 | 10.1 | 27.8 | 2.58 | 7.17 | 2.11 | 4.62 | 1.44 | 2.86 µM | 1.8 | 3.67 | 1.9 | 3.64 | 1.81 | 3.49 | 1.87 | 3.45 | 1.91 | 3.8 |  | 
9 | NC(N)=N/N=C/c1c(-c2ccc(Cl)c([N+](=O)[O-])c2)nc2sc3ccccc3n12 | 1.79 | 11.1 | 2.03 | 7.16 | 0.98 |  |  |  | 11.6 | 28.1 |  |  |  |  |  |  |  |  | 3.9 | 11.2
10 | O=C(C(=O)c1cc(Br)ccc1O)c1cc(Br)ccc1O |  |  | 2.03 | 7.52 | 18.6 | 44.5 | 3.26 | 29.4 µM | 6.51 | 34.9 | 6.04 | > 100 | 4.05 | 24.1 |  |  |  |  |  | 
11 | COc1cc(/C=C\c2cc(OC)c(OC)c(OC)c2)cc(NS(=O)(=O)c2ccc(Cl)cc2)c1OC | 13.5 | > 100 |  |  | 0.253 | 0.652 |  |  | 0.414 | > 100 | 1.53 | > 100 | 0.399 | > 100 | 0.364 | 51.4 | 0.343 | > 100 | 0.179 | 0.832
12 | COc1ccc(/C(C)=C(\c2ccc(Cl)cc2)c2ccc(OCCN3CCCCCC3)cc2)cc1F | 5.47 | > 16.7 | 5.54 | > 16.7 | 1.62 | 7.47 | 4.16 | 13.3 µM | 3.33 | 6.72 | 2.63 | 8.09 | 0.668 | 2.85 | 2.56 | 5.4 | 2.14 | 4.81 |  | 
13 | OCC(O)C(O)C(O)C(O)c1nn[nH]n1 (centres undefined) |  | > 100 |  | > 100 |  | > 100 |  | 88.1 µM and > 100 µM |  | > 100 |  | > 100 |  | > 100 |  | > 100 |  | > 100 |  | 
14 | c1ccc2c3c([nH]c2c1)C1C2CCCCN2C(c2ccncc2)N1CC3 (centres undefined) |  |  |  | > 100 |  | > 100 |  | 89 µM |  | > 100 |  | > 100 |  | > 100 |  | > 100 |  | > 100 |  | 
